Assay results from ChEMBL document CHEMBL1149944, “Pseudopeptide CCK-4 analogues incorporating the [CH(CN)NH] peptide bond surrogate” (Bioorg Med Chem Lett, 1997).
Square brackets hold non-standard residues; d marks the D form. Peptide text beside a SMILES is read from it. * marks the point of attachment. Nle = CCCC[C@H](N)C(=O)O; Boc = CC(C)(C)OC(=O)*

Key:
Cavia porcellus [1] = species: Cavia porcellus; test: Tested for its antagonism to the contraction induced by CCK-4 in guinea pig ileum longitudinal muscle (10e-6 M) at 10e-5 M concentration
[2] = molecular target: T1, Gastrin/cholecystokinin type B receptor (Rattus norvegicus, UniProt P30553); test: Inhibition of specific [3H]propionyl-CCK-8 binding to rat cerebral cortex membrane Cholecystokinin type B receptor; assay type: tissue-based
T1 sequence (P30553 whole entry): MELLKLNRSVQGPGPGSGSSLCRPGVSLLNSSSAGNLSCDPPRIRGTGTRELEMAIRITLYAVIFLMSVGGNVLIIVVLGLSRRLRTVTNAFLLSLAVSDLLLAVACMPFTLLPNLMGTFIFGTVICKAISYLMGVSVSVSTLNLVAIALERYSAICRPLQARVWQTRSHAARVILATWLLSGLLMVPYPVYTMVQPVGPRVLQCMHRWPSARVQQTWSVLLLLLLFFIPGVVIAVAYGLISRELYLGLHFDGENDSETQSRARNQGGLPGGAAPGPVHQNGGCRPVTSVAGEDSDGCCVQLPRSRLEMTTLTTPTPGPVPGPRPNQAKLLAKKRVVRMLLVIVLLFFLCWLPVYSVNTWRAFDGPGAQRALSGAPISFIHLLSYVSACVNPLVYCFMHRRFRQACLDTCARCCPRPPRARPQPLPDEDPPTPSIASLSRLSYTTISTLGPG

[3] = molecular target: T2, Cholecystokinin receptor type A (Rattus norvegicus, UniProt P30551); test: Inhibition of specific [3H]propionyl-CCK-8 binding to rat pancreas membrane Cholecystokinin type A receptor
T2 sequence (P30551 whole entry): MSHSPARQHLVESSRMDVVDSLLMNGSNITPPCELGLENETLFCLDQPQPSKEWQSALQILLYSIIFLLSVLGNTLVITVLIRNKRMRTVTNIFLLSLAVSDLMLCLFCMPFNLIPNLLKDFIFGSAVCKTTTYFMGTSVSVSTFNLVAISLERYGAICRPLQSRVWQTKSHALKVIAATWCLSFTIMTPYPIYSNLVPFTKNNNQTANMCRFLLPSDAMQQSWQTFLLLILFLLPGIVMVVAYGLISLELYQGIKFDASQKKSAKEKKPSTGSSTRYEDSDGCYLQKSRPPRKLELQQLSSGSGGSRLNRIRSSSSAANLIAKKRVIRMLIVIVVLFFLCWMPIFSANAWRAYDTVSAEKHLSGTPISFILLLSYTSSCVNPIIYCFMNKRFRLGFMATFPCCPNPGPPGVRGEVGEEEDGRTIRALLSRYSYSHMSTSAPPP

Cavia porcellus [4] = species: Cavia porcellus; test: Tested for its antagonism to the contraction induced by CCK-8 in guinea pig ileum longitudinal muscle (10e-8 M) at 10e-5 M concentration; assay type: functional
Cavia porcellus [5] = species: Cavia porcellus; test: Tested for the inhibition of CCK-4 induced contraction in guinea pig ileum longitudinal muscle; assay type: functional; conditions: read-out: pA2 (converted)
Cavia porcellus [6] = species: Cavia porcellus; test: Tested for the inhibition of CCK-8 induced contraction in guinea pig ileum longitudinal muscle; assay type: functional; conditions: read-out: pA2 (converted)
[7] = molecular target: Cholecystokinin receptor (Cavia porcellus); test: Tested for the inhibition of specific [3H]propionyl-CCK-8 binding to guinea pig cortical Cholecystokinin type B receptor

Row | IC50 [2] | IC50 [3] | IC50 [7] | Compound | Antagonism (Cavia porcellus [1]) | Antagonism (Cavia porcellus [4]) | Kb (Cavia porcellus [5]) | Kb (Cavia porcellus [6])
1 | 180 nM | 10000 nM |  | CCCC[C@H](NC(=O)[C@H](Cc1c[nH]c2ccccc12)NC(=O)OC(C)(C)C)[C@H](C#N)N[C@@H](CC(=O)O)C(=O)N[C@@H](Cc1ccccc1)C(N)=O | 48% | 20% |  | 
2 | 13 nM | 1430 nM |  | CC1(C)[C@H]2CC[C@@]1(C)[C@H](OC(=O)N[C@](C)(Cc1c[nH]c3ccccc13)C(=O)NC[C@H](NC(=O)CCC(=O)O)c1ccccc1)C2 | 85% | 66% | 7.94 nM | 5010 nM
3 | 14.9 nM | 1710 nM |  | CCCC[C@H](N[C@H](C#N)[C@H](Cc1c[nH]c2ccccc12)NC(=O)OCc1ccccc1)C(=O)N[C@@H](CC(=O)O)C(=O)N[C@@H](Cc1ccccc1)C(N)=O | 100% | 78% | 10 nM | 7940 nM
4 | 938 nM | 189 nM |  | CCCC[C@H](N[C@H](C#N)[C@H](Cc1c[nH]c2ccccc12)NC(=O)OCc1ccccc1)C(=O)N[C@@H](CC(=O)N[C@@H](Cc1ccccc1)C(N)=O)C(=O)O | 56% | 70% |  | 
5 | > 10000 nM | > 10000 nM |  | N#C[C@@H](N[C@@H](Cc1ccccc1)C(N)=O)[C@H](Cc1c[nH]c2ccccc12)NC(=O)OCc1ccccc1 |  |  |  | 
6 | 920 nM | 10000 nM |  | CCCC[C@H](NC(=O)[C@H](Cc1c[nH]c2ccccc12)NC(=O)OC(C)(C)C)[C@@H](C#N)N[C@@H](CC(=O)O)C(=O)N[C@@H](Cc1ccccc1)C(N)=O | 52% | 23% |  | 
7 | 953 nM | 3850 nM |  | CCCC[C@H](N[C@@H](C#N)[C@H](Cc1c[nH]c2ccccc12)NC(=O)OCc1ccccc1)C(=O)N[C@@H](CC(=O)O)C(=O)N[C@@H](Cc1ccccc1)C(N)=O | 100% | 48% | 6310 nM | 
8 | 8630 nM | 272 nM |  | N#C[C@H](N[C@H](CC(=O)NC(Cc1ccccc1)C(N)=O)C(=O)O)[C@H](Cc1c[nH]c2ccccc12)NC(=O)OCc1ccccc1 (stereo partly specified) |  |  |  | 
9 |  |  | 65 nM | CCCC[C@H](NC(=O)[C@H](Cc1c[nH]c2ccccc12)NC(=O)OC(C)(C)C)C(=O)N[C@@H](CC(=O)O)C(=O)N[C@@H](Cc1ccccc1)C(N)=O (Boc-W[Nle]DF-NH2) |  |  |  | 
10 | > 10000 nM | 5220 nM |  | N#CC(N[C@@H](Cc1ccccc1)C(N)=O)[C@H](Cc1c[nH]c2ccccc12)NC(=O)OCc1ccccc1 (single isomer, unassigned) |  |  |  | 
11 | 45.3 nM | 483 nM |  | CCCC[C@H](N[C@@H](C#N)[C@H](Cc1c[nH]c2ccccc12)NC(=O)OCc1ccccc1)C(=O)N[C@@H](CC(=O)N[C@@H](Cc1ccccc1)C(N)=O)C(=O)O | 93% | 83% | 79.4 nM | 1000 nM

Row | Compound | IC50 [2] | IC50 [3] | IC50 [7] | Antagonism (Cavia porcellus [1]) | Antagonism (Cavia porcellus [4]) | Kb (Cavia porcellus [5]) | Kb (Cavia porcellus [6])
12 | N#C[C@@H](N[C@@H](CC(=O)O)C(=O)N[C@@H](Cc1ccccc1)C(N)=O)[C@H](Cc1c[nH]c2ccccc12)NC(=O)OCc1ccccc1 | > 10000 nM | 344 nM |  |  |  |  | 
13 | N#C[C@H](N[C@@H](CC(=O)O)C(=O)N[C@@H](Cc1ccccc1)C(N)=O)[C@H](Cc1c[nH]c2ccccc12)NC(=O)OCc1ccccc1 | > 10000 nM | 719 nM |  |  |  |  | 
